Results on 55 compounds are retold here after patent US20240174651A1, “COMPOUNDS AND USE THEREOF FOR TREATMENT OF NEURODEGENERATIVE, DEGENERATIVE AND METABOLIC DISORDERS” (THE SCRIPPS RESEARCH INSTITUTE, priority 2021, published 2024).

The EC50 is the midpoint of the concentration-response curve.

“And” between values parts separate entries of the source, which are not always exact repeats. Identical values can stand only once.

The subject of the first assay is PK1 neuroblastoma cells exposed to TPrP. Briefly: cells. Format: cell-based. The following applies: PK-1, 96 h, read-out: TPrP EC50.
Turning to `CC(=O)c1cccc(Nc2nnc(Cc3ccncc3)c3ccccc23)c1` [SR005], the EC50 was 15 nM. On the same count and under the same terms, under `c1ccc2c(c1)CCC2Nc1nnc(Cc2ccncc2)c2ccccc12` (centres unmarked) [SR-27884] stands 500 nM; under `c1ccc2c(c1)CC(Nc1nnc(Cc3ccncc3)c3ccccc13)C2` [SR-27885], 200 nM. For the compound `COc1ccc(CNc2nnc(Cc3ccncc3)c3ccccc23)cc1OC` [SR-27886], the 50% effective concentration (EC50) is 150 nM.

Regarding `c1ccc2[nH]c(CNc3nnc(Cc4ccncc4)c4ccccc34)nc2c1` [SR-27887], the EC50 amounted to 220 nM. The same measure, in the same setting: next, `c1ccc2oc(CNc3nnc(Cc4ccncc4)c4ccccc34)nc2c1` [SR-27888]: 45 nM; `c1ccc2c(c1)CC(Nc1nnc(Cc3ccncc3)c3ccccc13)CO2` (centres unmarked) [SR-27889]: 285 nM.

As to `c1ccc2c(c1)CC(CNc1nnc(Cc3ccncc3)c3ccccc13)CO2` (centres unmarked) [SR-27890], the EC50 is 165 nM. Same read-out and setting: under `c1ccc(OCCNc2nnc(Cc3ccncc3)c3ccccc23)cc1` [SR-27892] stands 500 nM. The same measure, in the same setting: next, `CC(O)c1cccc(Nc2nnc(Cc3ccncc3)c3ccccc23)c1` (centres unmarked) [SR-29684]: 2 nM; `c1ccc2c(NCC3CCCO3)nnc(Cc3ccncc3)c2c1` (centres unmarked) [SR-30004]: 150 nM; `c1coc(CNc2nnc(Cc3ccncc3)c3ccccc23)c1` [SR-30005]: 140 nM. Same read-out and setting: under `c1ccc2[nH]c(CNc3nnc(Cc4ccncc4)c4ccccc34)cc2c1` [SR-30006] stands 50 nM; under `c1ccc2c(NCC3CCCCO3)nnc(Cc3ccncc3)c2c1` (centres unmarked) [SR-30007], 60 nM; under `c1ccc2c(NCC3CCOCC3)nnc(Cc3ccncc3)c2c1` [SR-30008], 15 nM. As for `c1ccc2oc(Nc3nnc(Cc4ccncc4)c4ccccc34)nc2c1` [SR-30010], the EC50 was 2 nM. Still for that read-out and setting: under `c1ccc2oc(CNc3nnc(Cc4ccncc4)c4ccccc34)cc2c1` [SR-30011] stands 2 nM. On the same count and under the same terms, under `CC1(c2cccc(Nc3nnc(Cc4ccncc4)c4ccccc34)c2)OCCO1` [SR-30012] stands 2 nM. On the same count and under the same terms, next, `C/C(=N\O)c1cccc(Nc2nnc(Cc3ccncc3)c3ccccc23)c1` [SR-30013]: 2 nM; `CO/N=C(\C)c1cccc(Nc2nnc(Cc3ccncc3)c3ccccc23)c1` [SR-30014]: 2 nM.

On to `CC(=C(F)F)c1cccc(Nc2nnc(Cc3ccncc3)c3ccccc23)c1` [SR-31144], for which the EC50 was over 400 nM. Same read-out and setting: under `CC(=O)c1cccc(Nc2nnc(Cc3cc(C)nc(C)c3)c3ccccc23)c1` [SR-32064] stands over 400 nM; under `Cc1cc(Cc2nnc(Nc3nc4ccccc4o3)c3ccccc23)cc(C)n1` [SR-32065], over 400 nM; under `Cc1ccc2nc(Nc3nnc(Cc4ccncc4)c4ccccc34)oc2c1` [SR-32066], 50 nM. `Fc1ccc2oc(Nc3nnc(Cc4ccncc4)c4ccccc34)nc2c1` [SR-32067]: the EC50 came to 20 nM. Same read-out and setting: under `O=[N+]([O-])c1ccc2oc(Nc3nnc(Cc4ccncc4)c4ccccc34)nc2c1` [SR-32068] stands 20 nM. On the same count and under the same terms, next, `O=[N+]([O-])c1cccc2oc(Nc3nnc(Cc4ccncc4)c4ccccc34)nc12` [SR-32069]: 8 nM. Same read-out and setting: under `Fc1cccc2oc(Nc3nnc(Cc4ccncc4)c4ccccc34)nc12` [SR-32070] stands 20 nM; under `Fc1ccc2nc(Nc3nnc(Cc4ccncc4)c4ccccc34)oc2c1` [SR-32071], 90 nM; under `Cc1cccc2oc(Nc3nnc(Cc4ccncc4)c4ccccc34)nc12` [SR-32072], 30 nM. Turning to `c1ccc2cc3oc(Nc4nnc(Cc5ccncc5)c5ccccc45)nc3cc2c1` [SR-32073], the EC50 is 250 nM. The same measure, in the same setting: under `Fc1cccc2nc(Nc3nnc(Cc4ccncc4)c4ccccc34)oc12` [SR-32074] stands 30 nM. As to `Cc1cccc2nc(Nc3nnc(Cc4ccncc4)c4ccccc34)oc12` [SR-32075], the EC50 was over 400 nM. Take `COc1ccc2oc(Nc3nnc(Cc4ccncc4)c4ccccc34)nc2c1` [SR-32076]: the EC50 was found to be 20 nM. `c1ccc2c(c1)ccc1oc(Nc3nnc(Cc4ccncc4)c4ccccc34)nc12` [SR-32077]: the EC50 came to 135 nM.

On to `CC(=O)c1cccc(Nc2nnc(Cc3ccnc(C)c3)c3ccccc23)c1` [SR-33871], for which the EC50 was found to be 70 nM. For `Cc1cc(Cc2nnc(Nc3nc4ccccc4o3)c3ccccc23)ccn1` [SR-33872], the EC50 is over 500 nM. On the same count and under the same terms, next, `CC(=O)c1cccc(Nc2nnc(Cc3ccnc(C(F)(F)F)c3)c3ccccc23)c1` [SR-33873]: over 500 nM; `COc1cc(Cc2nnc(Nc3cccc(C(C)=O)c3)c3ccccc23)ccn1` [SR-33874]: over 500 nM; `COc1cc(Cc2nnc(NCc3cc4ccccc4o3)c3ccccc23)ccn1` [SR-33875]: over 500 nM.

Consider `CC(=O)c1cccc(Nc2nnc(Cc3ccncc3C(F)(F)F)c3ccccc23)c1` [SR-33876], for which the EC50 was over 500 nM. The same measure, in the same setting: next, `CC(=O)c1cccc(Nc2nnc(C(C)c3ccncc3)c3ccccc23)c1` (centres unmarked) [SR-34644]: 45 nM; `CC(c1ccncc1)c1nnc(NCc2cc3ccccc3o2)c2ccccc12` (centres unmarked) [SR-34645]: about 500 nM. In the case of `CC(=O)c1cccc(Nc2nnc(C(c3ccncc3)C(F)(F)F)c3ccccc23)c1` (centres unmarked) [SR-34646], the EC50 was over 500 nM.

With `O=S(=O)(c1cccc(Nc2nnc(Cc3ccncc3)c3ccccc23)c1)N1CCOCC1` [SR-35424], the EC50 stood at 9 nM.

On to `O=S(=O)(c1ccc(Nc2nnc(Cc3ccncc3)c3ccccc23)cc1)N1CCOCC1` [SR-35425], for which the EC50 came to 5 nM. On the same count and under the same terms, under `c1cc(Nc2nnc(Cc3ccncc3)c3ccccc23)cc(C2COC2)c1` [SR-35426] stands 10 nM. `O=S(=O)(c1cccc(Nc2nnc(Cc3ccncc3)c3ccccc23)c1)N1C2CCC1COC2` [SR-35427]: the EC50 stood at 7 nM. For `O=S(=O)(c1cccc(Nc2nnc(Cc3ccncc3)c3ccccc23)c1)N1CC2CCC(C1)O2` [SR-35428], the EC50 is 6 nM. With `Cc1cc(C(C)c2nnc(NCC3CCOCC3)c3ccccc23)ccn1` (centres unmarked) [SR-35429, 4-(1-(2-methylpyridin-4-yl)ethyl)-N-((tetrahydro-2H-pyran-4-yl)methyl)phthalazin-1-amine], the EC50 stood at 26 nM. On the same count and under the same terms, under `Cc1cc(C(C)c2nnc(NC3CCc4ccccc43)c3ccccc23)ccn1` (centres unmarked) [SR-35430] stands over 900 nM.

Take `Cc1cc(C(C)c2nnc(Nc3cccc(C4COC4)c3)c3ccccc23)ccn1` (centres unmarked) [SR-35431]: the EC50 was over 900 nM. `Cc1cc(C(C)c2nnc(NCC3COc4ccccc4C3)c3ccccc23)ccn1` (centres unmarked) [SR-35432]: the EC50 was over 900 nM.

`Cc1cc(C(C)c2nnc(NCc3ccco3)c3ccccc23)ccn1` (centres unmarked) [SR-35433]: the EC50 is over 900 nM. The same measure, in the same setting: next, `Clc1ccc(Nc2nnc(Cc3ccncc3)c3ccccc23)cc1` [vatalanib, reference compound]: 60 nM.

Still in this assay, the particulars now being: read-out: TPrP EC50.
On to `CC(=O)c1cccc(Nc2nnc(Cc3ccncc3)c3ccccc23)c1` [SR005], for which the EC50 was 20 nM and 25 nM.
